For 36 molecules, agonistic activity results are on record in US8299111B2, “Compounds which modulate the CB2 receptor” (Boehringer Ingelheim International GmbH, priority 2006, dated 2012).

In this assay the target is T1, human CB2R (Homo sapiens, UniProt P34972).
T1 construct: host or cells: CHO cells
T1 sequence (P34972 whole entry): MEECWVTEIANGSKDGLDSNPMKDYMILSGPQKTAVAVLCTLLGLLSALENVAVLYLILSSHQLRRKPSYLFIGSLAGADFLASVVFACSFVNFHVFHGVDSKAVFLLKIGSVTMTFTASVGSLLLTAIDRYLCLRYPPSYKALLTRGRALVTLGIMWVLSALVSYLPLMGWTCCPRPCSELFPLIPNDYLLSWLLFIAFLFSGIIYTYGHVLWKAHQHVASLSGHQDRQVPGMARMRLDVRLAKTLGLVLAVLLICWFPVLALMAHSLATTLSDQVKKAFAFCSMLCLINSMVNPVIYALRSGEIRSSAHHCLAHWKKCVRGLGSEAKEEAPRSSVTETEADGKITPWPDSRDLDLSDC
The assay is described as follows: CB2R mediated modulation of cAMP synthesis. Format: cell-based. The conditions noted are these: found through the use of the above described assays (binding and cAMP); CHO cells expressing human CB2R, forskolin-stimulated cAMP. The method in brief:
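EC50 values reflect inhibition of cAMP made in response to 10 uM forskolin (with 1 mM IBMX, 0.25% BSA) over 30 min at 37 °C in human CB2R-expressing CHO cells. The window runs from forskolin alone to 1 uM CP55940; curves fitted with a four-parameter logistic model.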
As to `O=C(Nc1ccc(C(F)(F)F)cn1)C1(S(=O)(=O)c2ccc(Cl)cc2)CC1` [1-(4-Chloro-benzenesulfonyl)-cyclopropanecarboxylic acid (5-trifluoromethyl-pyridin-2-yl)-amide], the agonistic activity entry is reported as “agonistic activity”. Consider `CC(C)(C)c1cc(NC(=O)C(C)(C)S(=O)(=O)c2cccc(F)c2)no1` [N-(5-tert-Butyl-isoxazol-3-yl)-2-(3-fluoro-benzenesulfonyl)-2-methyl-propionamide], for which the agonistic activity entry is “agonistic activity”. For the molecule `Cn1nc(C(C)(C)C)cc1NC(=O)C(C)(C)S(=O)(=O)c1ccc(Br)cc1` [2-(4-Bromo-benzenesulfonyl)-N-(5-tert-butyl-2-methyl-2H-pyrazol-3-yl)-2-methyl-propionamide], the agonistic activity result was “agonistic activity”. For `CC(C)(C(=O)Nc1cnc2ccccc2c1)S(=O)(=O)c1ccc(Cl)cc1` [2-(4-Chloro-benzenesulfonyl)-2-methyl-N-quinolin-3-yl-propionamide], the agonistic activity result is on record as “agonistic activity”. On to `Cn1nc(C2CC2)cc1NC(=O)C(C)(C)S(=O)(=O)c1ccc(F)cc1F` [N-(5-Cyclopropyl-2-methyl-2H-pyrazol-3-yl)-2-(2,4-difluoro-benzenesulfonyl)-2-methyl-propionamide], for which the agonistic activity entry was “agonistic activity”. The same measure for `CC(C)(C(=O)Nc1cccc2ccccc12)S(=O)(=O)c1ccc(C(F)(F)F)nc1` [2-methyl-N-1-naphthyl-2-{[6-(trifluoromethyl)pyridin-3-yl]sulfonyl}propanamide]: “agonistic activity”; for `Cc1ccc(NC(=O)C(C)(C)S(=O)(=O)c2ccc(Cl)cc2)nc1` [2-(4-Chloro-benzenesulfonyl)-2-methyl-N-(5-methyl-pyridin-2-yl)-propionamide]: “agonistic activity”; for `CC(C)(C)c1cc(NC(=O)C(C)(C)S(=O)(=O)c2ccc3ccccc3c2)no1` [N-(5-tert-Butyl-isoxazol-3-yl)-2-methyl-2-(naphthalene-2-sulfonyl)-propionamide]: “agonistic activity”. The same measure for `CC(C)(C)c1cc(NC(=O)C(C)(C)S(=O)(=O)c2ccc3nsnc3c2)no1` [2-(Benzo[1,2,5]thiadiazole-5-sulfonyl)-N-(5-tert-butyl-isoxazol-3-yl)-2-methyl-propionamide]: “agonistic activity”. Turning to `O=C(Nc1cccc(C(F)(F)F)n1)C1(S(=O)(=O)c2ccc(C(F)(F)F)cc2)CC1` [1-(4-Trifluoromethyl-benzenesulfonyl)-cyclopropanecarboxylic acid (6-trifluoromethyl-pyridin-2-yl)-amide], the agonistic activity result is “agonistic activity”. With `CCc1sc(NC(=O)C(C)(C)S(=O)(=O)c2ccc(S(C)(=O)=O)cc2)nc1-c1ccccc1` [N-(5-ethyl-4-phenyl-1,3-thiazol-2-yl)-2-methyl-2-{[4-(methylsulfonyl)phenyl]sulfonyl}propanamide] the entry was “agonistic activity”; with `CC(C)(C)c1cc(NC(=O)C(C)(C)S(=O)(=O)c2ccc(Cl)cc2Cl)no1` [N-(5-tert-Butyl-isoxazol-3-yl)-2-(2,4-dichloro-benzenesulfonyl)-2-methyl-propionamide], “agonistic activity”; with `CC(C)(C)c1csc(NC(=O)C(C)(C)S(=O)(=O)c2ccc(Cl)cc2F)n1` [N-(4-tert-Butyl-thiazol-2-yl)-2-(4-chloro-2-fluoro-benzenesulfonyl)-2-methyl-propionamide], “agonistic activity”.

For `Cc1nc(NC(=O)C(C)(C)S(=O)(=O)c2ccccc2F)sc1C(C)(C)C` [N-(5-tert-Butyl-4-methyl-thiazol-2-yl)-2-(2-fluoro-benzenesulfonyl)-2-methyl-propionamide], the agonistic activity entry is “agonistic activity”. For `Cn1nc(C(C)(C)C)cc1NC(=O)C(C)(C)S(=O)(=O)c1ccc(C#N)cc1F` [N-(5-tert-Butyl-2-methyl-2H-pyrazol-3-yl)-2-(4-cyano-2-fluoro-benzenesulfonyl)-2-methyl-propionamide], the agonistic activity result is “agonistic activity”.

As for `CC(C)(C(=O)Nc1nc(-c2ccc(Cl)cc2)cs1)S(=O)(=O)c1ccc(S(C)(=O)=O)cc1` [N-[4-(4-chlorophenyl)-1,3-thiazol-2-yl]-2-methyl-2-{[4-(methylsulfonyl)phenyl]sulfonyl}propanamide], the agonistic activity entry is recorded as “agonistic activity”. Consider `CC(C)(C(=O)Nc1nc(-c2ccncc2)cs1)S(=O)(=O)c1ccc(Cl)cc1` [2-(4-Chloro-benzenesulfonyl)-2-methyl-N-(4-pyridin-4-yl-thiazol-2-yl)-propionamide], for which the agonistic activity entry is “agonistic activity”.

For `Cc1ccc(S(=O)(=O)C(C)(C)C(=O)Nc2cccc(C(F)(F)F)n2)cn1` [2-Methyl-2-(6-methyl-pyridine-3-sulfonyl)-N-(6-trifluoromethyl-pyridin-2-yl)-propionamide], the agonistic activity entry is “agonistic activity”. On to `CCc1sc(NC(=O)C(C)(C)S(=O)(=O)c2ccc(F)cc2F)nc1-c1ccccc1` [2-[(2,4-difluorophenyl)sulfonyl]-N-(5-ethyl-4-phenyl-1,3-thiazol-2-yl)-2-methylpropanamide], for which the agonistic activity result is on record as “agonistic activity”.

As for `CC(C)(C(=O)Nc1ccc2ccccc2n1)S(=O)(=O)c1ccc(C(F)(F)F)nc1` [2-methyl-N-quinolin-2-yl-2-{[6-(trifluoromethyl)pyridin-3-yl]sulfonyl}propanamide], the agonistic activity result was “agonistic activity”. Turning to `CC(C)(C(=O)Nc1nc2ccc(F)cc2s1)S(=O)(=O)c1ccc(Cl)cc1` [2-[(4-chlorophenyl)sulfonyl]-N-(6-fluoro-1,3-benzothiazol-2-yl)-2-methylpropanamide], the agonistic activity result is listed as “agonistic activity”. For the molecule `CC(C)(C(=O)Nc1nc(C2CCCCC2)cs1)S(=O)(=O)c1ccc(Cl)cc1` [2-(4-Chloro-benzenesulfonyl)-N-(4-cyclohexyl-thiazol-2-yl)-2-methyl-propionamide], the agonistic activity entry is “agonistic activity”. With `Cn1nc(C(C)(C)C)cc1NC(=O)C(C)(C)S(=O)(=O)c1ccc(Cl)cc1` [N-(5-tert-Butyl-2-methyl-2H-pyrazol-3-yl)-2-(4-chloro-benzenesulfonyl)-2-methyl-propionamide] the entry was “agonistic activity”. Regarding `CC(C)(C)c1cc(NC(=O)C(C)(C)S(=O)(=O)c2ccccc2)no1` [2-Benzenesulfonyl-N-(5-tert-butyl-isoxazol-3-yl)-2-methyl-propionamide], the agonistic activity result is given as “agonistic activity”. In the case of `CC(C)(C(=O)Nc1nc(-c2ccc(Cl)cc2)cs1)S(=O)(=O)c1ccc(C(F)(F)F)nc1` [N-[4-(4-chlorophenyl)-1,3-thiazol-2-yl]-2-methyl-2-{[6-(trifluoromethyl)pyridin-3-yl]sulfonyl}propanamide], the agonistic activity result is given as “agonistic activity”. As to `CC(C)(C)c1nnc(NC(=O)C(C)(C)S(=O)(=O)c2ccc(F)cc2F)s1` [N-(5-tert-butyl-1,3,4-thiadiazol-2-yl)-2-[(2,4-difluorophenyl)sulfonyl]-2-methylpropanamide], the agonistic activity entry is recorded as “agonistic activity”. As for `Cn1nc(C(C)(C)C)cc1NC(=O)C(C)(C)S(=O)(=O)c1cccc(F)c1` [N-(5-tert-Butyl-2-methyl-2H-pyrazol-3-yl)-2-(3-fluoro-benzenesulfonyl)-2-methyl-propionamide], the agonistic activity result is listed as “agonistic activity”. On to `Cc1sc(NC(=O)C(C)(C)S(=O)(=O)c2ccc(Cl)cc2)nc1-c1ccccc1` [2-(4-Chloro-benzenesulfonyl)-2-methyl-N-(5-methyl-4-phenyl-thiazol-2-yl)-propionamide], for which the agonistic activity entry is recorded as “agonistic activity”. With `CC(C)(C(=O)Nc1ccc(C(F)(F)F)cn1)S(=O)(=O)c1ccc(C(F)(F)F)cc1` [2-Methyl-2-(4-trifluoromethyl-benzenesulfonyl)-N-(5-trifluoromethyl-pyridin-2-yl)-propionamide] the entry was “agonistic activity”.

In the case of `CC(C)(C)c1cc(NC(=O)C(C)(C)S(=O)(=O)c2ccc(C(F)(F)F)cn2)no1` [N-(5-tert-Butyl-isoxazol-3-yl)-2-methyl-2-(5-trifluoromethyl-pyridine-2-sulfonyl)-propionamide], the agonistic activity result is given as “agonistic activity”.

Regarding `CC(C)(C)c1cc(NC(=O)C(C)(C)S(=O)(=O)c2ccc(Cl)c(Cl)c2)no1` [N-(5-tert-Butyl-isoxazol-3-yl)-2-(3,4-dichloro-benzenesulfonyl)-2-methyl-propionamide], the agonistic activity result is listed as “agonistic activity”.

On to `CCc1ccnc(NC(=O)C(C)(C)S(=O)(=O)c2ccc(Cl)cc2)c1` [2-(4-Chloro-benzenesulfonyl)-N-(4-ethyl-pyridin-2-yl)-2-methyl-propionamide], for which the agonistic activity result is given as “agonistic activity”. With `CC(C)(C)c1cc(NC(=O)C(C)(C)S(=O)(=O)c2ccc(Cl)cc2F)no1` [N-(5-tert-Butyl-isoxazol-3-yl)-2-(4-chloro-2-fluoro-benzenesulfonyl)-2-methyl-propionamide] the entry was “agonistic activity”; with `CC(C)(C(=O)Nc1ncc(C#N)s1)S(=O)(=O)c1ccc(Cl)cc1` [2-(4-Chloro-benzenesulfonyl)-N-(5-cyano-thiazol-2-yl)-2-methyl-propionamide], “agonistic activity”. For the molecule `CC(C)(C)c1cccc(NC(=O)C(C)(C)S(=O)(=O)c2ccc(Cl)cc2F)c1` [N-(3-tert-butylphenyl)-2-[(4-chloro-2-fluorophenyl)sulfonyl]-2-methylpropanamide], the agonistic activity result is reported as “agonistic activity”. The same measure for `CC(C)(C(=O)Nc1cccc2ccccc12)S(=O)(=O)c1ccc(Cl)cc1F` [2-[(4-chloro-2-fluorophenyl)sulfonyl]-2-methyl-N-1-naphthylpropanamide]: “agonistic activity”.
